Reference: publication PMC8667925, “New 1,2,4-oxadiazole derivatives with positive mGlu4 receptor modulation activity and antipsychotic-like properties” (Journal of Enzyme Inhibition and Medicinal Chemistry, 2021)
Entries after “also recorded” stand apart in the source; their conditions may differ.

Key:
mGlu4 receptor = target: T1, mGlu4 receptor (Homo sapiens, UniProt Q14833); experiment: forskolin-stimulated cAMP assay, PAM mode (EC20 of L-Glu), T-REx 293 cells; type: cell-based; settings: for EC50 / Emax / mGlu4 receptor PAM activity: PAM mode; for EC50: EC20 (3 µM) L-Glu, T-REx 293 cells expressing human mGlu4 receptor; for EC50 / Emax / Fold shift of L-Glu dose-response curve: SEM where given; for Emax: T-REx-293, read-out: GluMax; for Emax / mGlu4 receptor PAM activity: human mGlu4; for Fold shift of L-Glu dose-response curve: in the presence of 10 µM of compound
T1 construct: mGlu4 receptor NM_000841, mGlu7 receptor NM_000844.2, and mGlu8 receptor NM_000845; expressed in transfected cells; host or cells: T-REx 293
T1 sequence (Q14833 33-912): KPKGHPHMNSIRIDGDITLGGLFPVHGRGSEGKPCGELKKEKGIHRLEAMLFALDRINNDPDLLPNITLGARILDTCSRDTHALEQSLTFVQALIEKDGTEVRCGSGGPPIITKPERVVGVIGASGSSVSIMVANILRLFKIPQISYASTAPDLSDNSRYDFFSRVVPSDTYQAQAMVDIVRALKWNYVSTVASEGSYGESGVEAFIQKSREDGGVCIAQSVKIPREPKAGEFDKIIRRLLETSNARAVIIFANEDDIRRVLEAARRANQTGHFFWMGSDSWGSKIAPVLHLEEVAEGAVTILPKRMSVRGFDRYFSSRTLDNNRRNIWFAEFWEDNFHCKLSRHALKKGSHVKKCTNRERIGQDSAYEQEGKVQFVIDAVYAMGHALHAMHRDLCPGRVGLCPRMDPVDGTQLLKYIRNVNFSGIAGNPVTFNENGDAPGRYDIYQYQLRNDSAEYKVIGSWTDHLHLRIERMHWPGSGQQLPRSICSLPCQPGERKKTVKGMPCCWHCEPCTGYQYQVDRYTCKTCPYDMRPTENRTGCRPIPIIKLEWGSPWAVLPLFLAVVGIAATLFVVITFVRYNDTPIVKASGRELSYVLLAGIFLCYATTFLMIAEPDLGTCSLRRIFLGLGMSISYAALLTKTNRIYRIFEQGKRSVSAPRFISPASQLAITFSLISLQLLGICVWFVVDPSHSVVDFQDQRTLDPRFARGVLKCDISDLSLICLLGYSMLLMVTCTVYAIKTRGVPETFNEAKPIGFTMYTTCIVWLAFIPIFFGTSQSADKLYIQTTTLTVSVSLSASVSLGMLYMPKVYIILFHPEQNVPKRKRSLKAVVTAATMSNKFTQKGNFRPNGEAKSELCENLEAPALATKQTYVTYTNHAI
Experimental: The activity of the compounds was assessed in vitro in a forskolin-stimulated cAMP assay in T-REx 293 cells expressing human mGlu4 receptors in the presence of an EC20 concentration of L-Glu; a PAM was identified if it potentiated cAMP inhibition by the Gi/o-dependent pathway of mGlu4 receptor activation; i.e. if it was able to produce a leftward shift in the potency of the endogenous agonist.
Determination of the intracellular cAMP through a homogeneous time-resolved fluorescence (HTRF) cAMP dynamic 2 kit from Cisbio (Codolet, France) was described previously by Chruścicka et al.[91]. Briefly, cells were grown in DMEM supplemented with 10% foetal bovine serum (FBS) (tetracycline free). Forty-eight hours before the experiments, mGlu receptor expression was induced by the addition of 0.75 µg/mL tetracycline. Twenty hours before the experiment, FBS and L-Glu were removed from the medium. Thereafter, the cells were scraped and centrifuged. A cell pellet was suspended in Hanks-HEPES (130 mM NaCl, 5.4 mM KCl, 1.8 mM CaCl2, 0.8 mM MgSO4, 0.9 mM NaH2PO4, 20 mM HEPES, and 3.25 mM glucose; pH 7.4). Then, the cell suspension was incubated in the presence of 10 µM forskolin (or 3 µM forskolin for mGlu7 receptor), the agonist L-glutamate and a compound for 5 min. Next, 10 µl of the cell suspension was mixed with 5 µl of cAMP-d2 conjugate and 5 µL of anti-cAMP cryptate conjugate. After 1 h of incubation at rt, the fluorescence at 620 nm and 665 nm was read (Tecan Infinite M1000). The results were calculated as the 665 nm/620 nm ratio multiplied by 10^4. Each sample was prepared in triplicate.
Statistical calculations were performed using GraphPad Prism 5.04 software (GraphPad Software, La Jolla, CA, USA). The curves were fitted to a 3-parametric logistic equation, allowing for the determination of EC50 values. Each data point was analysed in triplicate.

Albino Swiss mice [1] = experiment: modified stress-induced hyperthermia (SIH) in singly housed mice; type: in vivo
Experimental: (§1) The compounds were dissolved in a small amount of 100% EtOH and then adjusted with 20% cyclodextrin, and the pH was adjusted to 6.0. The investigated compounds were administered intraperitoneally (i.p.) 60 min before the behavioural test. Control drugs i.e. diazepam, clozapine and imipramine (Sigma–Aldrich, St. Louis, USA), were administered i.p. 60 min before the behavioural test. Cyclodextrin (20%) was used as a vehicle. All solutions were prepared immediately prior to the experiments and were administered at a constant volume of 10 ml/kg.
The procedure for modified stress-induced hyperthermia was adapted from Van der Heyden[93] and based on the procedure introduced by Borsini[94]. Each experimental group consisted of eight to ten animals. The animals were housed individually in a 26 × 21 × 14 cm Macolon cage 24 h before testing. For this assay, the body temperature was measured for each mouse at t = 0 min (T1) and t = +15 min (T2). Albino Swiss mice were placed into a new cage immediately following T1, with the difference in temperature (T2−T1) used as the measure of stress-induced hyperthermia. […] A comparison between T1 in vehicle-treated mice and those administered the test compound was used to determine whether the agent affects body temperature alone. Diazepam (5 mg/kg) was used as the positive control. The rectal temperature was measured to the nearest 0.1 °C with a Physitemp Theralert thermometer, TH-5, Clifton NJ, USA, with the temperature sensor for mice, Type T, Copper-Constantan Thermocouple, Braintree Scientific Inc. The lubricated thermistor probe (2 mm diameter) was inserted 20 mm into the rectum. The mouse was held at the base of the tail during this determination, and the thermistor probe was left in place until a constant reading was obtained for 15 s. The effects of the investigated compounds on the SIH response were investigated after administration of the compounds at doses of 5, 10 and 20 mg/kg.

Albino Swiss mice [2] = experiment: DOI-induced head twitch test (HTR); type: in vivo; settings: over the doses 2.5, 5 and 10 mg/kg i.p.; DOI 2.5 mg/kg i.p.
Experimental: as §1
The experiments were performed according to the procedure described in our previous studies[75]^,[80]. Briefly, to habituate mice to the experimental environment, each animal was transferred to a 12 cm (diameter) × 20 cm (height) glass cage lined with sawdust 30 min before treatment. Test compounds were administered intraperitoneally (i.p.) at doses of 2.5, 5, and 10 mg/kg body weight 60 min before the test was performed. The head twitch response (HTR) in mice was induced by DOI (2.5 mg/kg, i.p.). Immediately after treatment, the number of head twitches was counted during a 20 min session. Haloperidol and clozapine were used as the reference compounds at active doses of 0.2 and 5 mg/kg, respectively.

Structure (SMILES) | EC50 (mGlu4 receptor) | Emax (mGlu4 receptor) | Fold shift of L-Glu dose-response curve (mGlu4 receptor) | effect on SIH response (Albino Swiss mice [1]; 5 mg/kg i.p., 60 min before test) | mGlu4 receptor PAM activity (mGlu4 receptor) | effect on DOI-induced HTR (Albino Swiss mice [2]) | effect on SIH response (Albino Swiss mice [1]; over the doses 5, 10 and 20 mg/kg i.p.)
COc1cc(NC(=O)c2ccccn2)ccc1-c1noc(-c2ccc(F)cc2Cl)n1 [Compound 38] | 1980 nM | 124% | 4.6 | – | – | – | –
CN1C(=O)CN=C(c2ccccc2)c2cc(Cl)ccc21 [diazepam, reference compound] | – | – | – | significantly reduced SIH | – | – | –
COc1cc(NC(=O)c2nc(Cl)ccc2Cl)ccc1-c1noc(-c2ccccc2F)n1 [Compound 48] | – | – | – | – | did not potentiate cAMP inhibition | – | –
COc1ccc(Cl)c(C(=O)Nc2ccc(-c3noc(-c4ccccc4Cl)n3)c(OC)c2)n1 [Compound 42] | – | – | – | – | did not potentiate cAMP inhibition | failed to alter SIH and block DOI-induced HTR | None of the administered doses of compound 42 statistically affected the SIH; also recorded: failed to alter SIH
COc1cc(NC(=O)c2ccccn2)ccc1-c1noc(-c2cccc(Cl)c2)n1 [Compound 35] | 5300 nM | 145% | 2.2 | – | – | – | –
COc1ccc(-c2nc(-c3ccc(NC(=O)c4cccs4)cc3)no2)cc1 [Compound 17c] | – | – | – | – | not tolerated | – | –
O=C(Nc1ccc(-c2noc(-c3ccccc3Cl)n2)cc1)c1ccccn1 [Compound 17d] | 3700 nM | 116% | 1.8 | – | – | – | –
COc1cc(NC(=O)c2nccs2)ccc1-c1noc(-c2ccccc2Cl)n1 [Compound 46] | 2200 nM | 126% | 3.6 | – | – | – | –
O=C(Nc1ccc(-c2noc(-c3ccccc3Cl)n2)c(Cl)c1)c1cccc(F)n1 [Compound 50] | – | – | – | – | unable to modulate mGlu4 receptor activity | – | –
O=C(Nc1ccc(-c2noc(-c3ccccc3)n2)c(C(F)(F)F)c1)c1ccccn1 [Compound 59] | 740 nM | 150% | 7.6 | – | – | – | –
COc1cc(NC(=O)c2cc(F)cc(F)n2)ccc1-c1noc(-c2ccccc2Cl)n1 [Compound 43] | 2500 nM | 134% | 5.0 | – | – | – | –
COc1ccccc1-c1nc(-c2ccc(NC(=O)c3ccccn3)cc2Cl)no1 [Compound 54] | 750 nM | 111% | 2.2 | – | – | – | –
Cc1cc(NC(=O)c2ccccn2)ccc1-c1noc(-c2ccccc2)n1 [Compound 61] | 1650 nM | 128% | 5.1 | – | – | – | –
O=C(Nc1ccc(-c2noc(-c3ccccc3Cl)n2)c(Cl)c1)c1cccc(Cl)n1 [Compound 51] | – | – | – | – | unable to modulate mGlu4 receptor activity | – | –
O=C(Nc1ccc(-c2noc(-c3ccc(F)cc3Cl)n2)c(Cl)c1)c1ccccn1 [Compound 53] | 1350 nM | 119% | 2.1 | – | – | – | –
O=C(Nc1ccc(-c2noc(-c3ccccc3)n2)c(F)c1)c1ccccn1 [Compound 55] | 2560 nM | 127% | 3.0 | – | – | – | –
COc1cc(NC(=O)c2ccncn2)ccc1-c1noc(-c2ccccc2Cl)n1 [Compound 45] | 3100 nM | 118% | 3.1 | – | – | – | –
COc1cc(NC(=O)c2ccccn2)ccc1-c1noc(-c2ccccc2)n1 [Compound 33] | 1830 nM | 130% | 5.3 | – | – | – | –
COc1cc(NC(=O)c2cccc(F)n2)ccc1-c1noc(-c2ccccc2F)n1 [Compound 47] | 890 nM | 121% | 6.9 | – | – | – | –
COc1cc(NC(=O)c2ncc(Cl)cc2F)ccc1-c1noc(-c2ccccc2Cl)n1 [Compound 40] | – | – | – | – | did not potentiate cAMP inhibition | – | –
COc1cc(NC(=O)c2cccc(Cl)n2)ccc1-c1noc(-c2ccccc2Cl)n1 [Compound 41] | 1920 nM | 115% | 4.1 | – | – | – | –
COc1cc(NC(=O)c2ccccn2)ccc1-c1noc(-c2ccc(Cl)cc2)n1 [Compound 36] | 1980 nM | 157% | 2.0 | – | – | – | –
